From patent US10822383B2, “Polypeptides capable of producing glucans having alpha-1,2 branches and use of the same” (E I DU PONT DE NEMOURS AND COMPANY, priority 2015, dated 2020)

Tests used:
[1] = Alpha-1,2 branching reaction with GTF9905 on products of the GTF8117 reaction; format: biochemical; settings: 1.13 U/mL GTF9905, 175 g/L sucrose, 30° C., 76.2 h
Method: First, a reaction was performed to prepare glucan that was used in the second part of this Example as a substrate for 1,2-branching enzyme. A reaction mixture (20 mL) comprised of sucrose (488 g/L) and GTF8117 (Example 4, 9.4 U/mL) was adjusted to pH 5.5 with 6.0 N hydrochloric acid and stirred at 47° C. Aliquots were withdrawn at predetermined times and quenched by heating at 90° C. for 20 min. The resulting heat-treated aliquots were centrifuged and the supernatants analyzed by HPLC to determine the concentration of sucrose, glucose, fructose, leucrose, oligosaccharides and polysaccharides. After 6 h, the reaction mixture was heated to 90° C. for 30 minutes, and an aliquot of the heat-treated reaction mixture was centrifuged and the resulting supernatant analyzed for soluble monosaccharides, oligosaccharides and polysaccharides (DP8+) (Table 1). The DP8+ polysaccharides appeared to contain about 100% alpha-1,6 linkages.
A second reaction was then performed to conduct alpha-1,2 branching from the products of the first reaction. […] The resulting heat-treated aliquots were centrifuged and the supernatants analyzed by HPLC to determine the concentration of sucrose, glucose, fructose, leucrose, oligosaccharides and polysaccharides. […]

[2] = Alpha-1,2 branching activity of GTFJ18 / GTFJ18T1 on a glucan backbone (NMR linkage profile of product); format: biochemical; settings: for alpha-1,2 linkages in the product of the branching reaction / alpha-1,6 linkages in the product of the branching reaction: 10% (v/v) crude cell extract, 40 g/L sucrose, 22 hours, NMR
Excerpt: The alpha-1,2 branching activities of each enzyme (GTFJ18 or GTFJ18T1) were individually tested on the glucan product of the glucosyltransferase, GTF5604, which is derived from Streptococcus criceti HS-6 (GENBANK® Acc. No. WP_004226213.1, old gi: 357235604) and disclosed in International Pat. Appl. Publ. No. WO2015/183714 (also referred to therein as SG1018 glucosyltransferase or GtfHS6). GTF5604 (SEQ ID NO:33) has 1338 amino acids with the N-terminal 36 amino acids deduced as its signal peptide by the SignalP 4.0 program. The native nucleotide sequence (positions 1289627-1293643 of GENBANK Acc. No. NZ_AEUV02000002.1) encoding full length GTF5604 (SEQ ID NO:33) including its native signal peptide was synthesized by GenScript and cloned into the SpeI and HindIII sites of the replicative Bacillus expression plasmid pHYT (Takara Bio Inc., Otsu, Japan) under the B. subtilis aprE promoter. The construct was first transformed into E. coli DH10B and selected on ampicillin (100 μg/mL) plates. The confirmed clone, pDCQ918, was then transformed into Bacillus subtilis strain BG6006 (amyE::xylRPxylAcomK-ermC, degUHy32, oppA, ΔspoIIE3501, ΔaprE, ΔnprE, Δepr, ΔispA, Δbpr, Δvpr, ΔwprA, Δmpr-ybfJ, ΔnprB) and selected on tetracycline (12.5 μg/mL) plates, after which the transformed strain, termed as SG1018, was grown in LB containing 10 μg/mL tetracycline first, followed by subculturing into Grant's II medium containing 12.5 μg/mL tetracycline and growth at 37° C. for 2-3 days. The cultures were spun at 15,000×g for 30 min at 4° C. and the supernatant was filtered through 0.22-μm filters. A glucan synthesis reaction was set up containing 10% (v/v) of the SG1018 supernatant with 100 g/L sucrose, 10 mM sodium citrate pH 5 and 1 mM CaCl2. […] The glucan synthesis reaction was subjected to heat inactivation at 95° C. for 30 min.
A branching reaction was set up with 70% (v/v) of the heat-inactivated glucan synthesis reaction. The enzyme being tested for branching activity off of the above glucan product, GTFJ18 or GTFJ18T1, was provided as 10% (v/v) of the above-prepared crude cell extract from EC0059 or EC0059T1, respectively, with 40 g/L sucrose. Each branching reaction was incubated at 37° C. or 30° C. for 22 hours and the products were analyzed by HPLC for sucrose consumption and NMR for linkage profile.
NMR data were acquired on an Agilent DD2 spectrometer (Agilent Technologies, Inc., Santa Clara, Calif.) operating at 500 MHz for ^1H using a 5-mm cryogenic triple-resonance pulsed-field gradient probe. Water suppression was obtained by carefully placing the observe transmitter frequency on resonance for the residual water signal in a “presat” experiment, and then using the first slice of a NOESY experiment with a full phase cycle (multiple of 32) and a mix time of 10 ms. One-dimensional ^1H spectra were acquired with a spectral width of 6410 Hz, acquisition time of 5.1 s, 65536 data points, 4 s pre-saturation and a 90-degree observe pulse. Signal averaging typically involved accumulation of 64 scans. Sample temperature was maintained at 25° C.
Liquid samples were prepared by adding either 50 or 100 μL of completed branching reactions to a 5-mm NMR tube along with 60 μL of D2O containing 12.4 mM 4,4-dimethyl-4-silapentane-1-sulfonic acid sodium salt (DSS) as an internal chemical shift reference, and the balance (450 or 400 μL) of D2O for a total volume of […]. The DSS methyl resonance was set to 0 ppm. […]

Molecule: GTF9905: Fructobacillus tropaeoli glucosyltransferase, SEQ ID NO:4, mature form positions 36-1672
- alpha-1,2 branching activity (in words) [1]: significant alpha-1,2 branching activity

Molecule: GTFJ18: full length glucosyltransferase from Leuconostoc mesenteroides J18, SEQ ID NO:1 (identical to SEQ ID NO:13)
- alpha-1,2 linkages in the product of the branching reaction [2]: 0.6%
- alpha-1,6 linkages in the product of the branching reaction [2]: 97%

B1: GTFJ18T1: N-terminal-truncated form of GTFJ18 (first 1664 residues removed), SEQ ID NO:27 (protein)
chain: VKGDKRTIDGVLYTFDKESGERKGLDSISVLPTNGQYTTDKAQNWYYQVDGENVKGLYTNNDGQLRYFDLTTGVQTKGNFVTIGNDTYYFTKEQGDGQIVSEVVSGHYGTVQLSDNSSAWVYRGANDQILKGLQNINGRLQYFDLTTGAQLKGGAANYDGNLYYFESSDGNLVSKIQQSYSTGNYVTDGDKVTYADEQNNQVTGLALIDDQLQYFDPSDGRQVKNEQVIVDGVTYYFDKNGNGQYLFTNTATMSTNEFAKHSAAYSNDSSSFKNTIDGFLTADTWYRPKDILENGQTWVVSSTNDVRPLITVWWLNKDVQVNYSNFMKQNGLLDTSSQFNLQSDQYDLNVAAQKVQVAIEKRISKEKSTDWLKDLLFEAHEDTPSFVKQQFIWNKDSEYQGQGDAWFQGGYLKYGNNELTPTTNSDYRESGNTLDFLLANDVDNSNPAVQAENLNWLHYLMNFGTITANDDDANFDSIRIDAVDFIDNDAIQRTYDYMRDAYKVDASEDNANKHISLVEAGLDAGTSTIKSDALVESNFREAATLSLANQSGENSSLTNMLQDIDGGQIIADHANNATENESTPNYSIIHAHDKGIQEKVGAAITDVTGADWTNFTDDQLKEGLAAYYQDQRSTNKKYNIYNLPSIYALMLTNKDTVPRVYYGDMYQDDGQYMEKQSIYYDAIVSLMNTRKSYVSGGQTMDVDEHGLLKSVRFGKDAMTASDLGTNETRTEGVGVLVGNDSSLKLNDSDTVTLEMGAAHKNQKYRAALLTTSDGIVTYDADNDAPTIWTDDRGTLTFSNKEIAGQDYTSVQGFANSQVSGYLAVWVPVGASDDQDVRTAALTDANLDDKVLHSNAALDSNLIYEGFSNFQPKATTNDELTNVVIAKNANLFEKWGITSFEMAPQYRSSGDHTFLDSTIDNGYAFTDRYDLGFETPTKYGTDKDLRTAIKALHQSNMQVMADVVDNQVYNLSGQEVVSASRAGVYGNDVSTGFGTQLYAVNSVGGGKYQAQYGGEYLNELKQQYPDLFEAKTYDYWVKNYSNDGSDPYYTLSQNTRKDMPSSEVIKQWSAKYMNGTNVLGNGMGYVLKDWNTGEYFKIGEKNADFITN
modifications: Leuconostoc mesenteroides
- alpha-1,2 linkages in the product of the branching reaction [2]: 18%
- alpha-1,6 linkages in the product of the branching reaction [2]: 82%
- alpha-1,2 branching activity (in words) ([2]; compared to full length GTFJ18): much higher alpha-1,2 branching activity
